Reference: patent US8772299B2, “Phenyl piperazine compounds, pharmaceutical composition including the same and use thereof” (SK Biopharmaceuticals Co., Ltd., priority 2008, dated 2014)
Counter-ions that a name gives are not always drawn.

Key:
[1] = system: mice; assay: Anti-Marble Burying Behavior Test in Mice; assay type: in vivo; conditions: Mus musculus, reduction in number of marbles buried, ip
From the text: Marble burying was developed and validated as a pre-clinical assay of potential anxiolytic activity (Andrews and Broekkamp (1993). Procedures to Identify Anxiolytic or Anxiogenic agents. In Behavioural Neuroscience, ed. A Sahgal, pp. 37-54. IRL Press, Oxford). The marble burying test places a naive mouse into a novel environment containing 25 marbles (arranged on top of a sawdust surface). A reduction in the number of marbles buried by the mouse was hypothesized to be an anxiolytic-like effect.

[2] = target: T1, Serotonin 1A (5-HT1A) receptor (Rattus norvegicus, UniProt P19327); assay: Serotonin 1A (5-HT1A) receptor inhibition assay, [3H]8-OH-DPAT binding to rat cortex membranes; design: species or system Sprague-Dawley (SD) rats; conditions: 10 nM test compound; 0.92 nM [3H]8-OH-DPAT; rat cortex homogenate; 60 min at 25° C.
T1 construct: The cortex tissue were homogenized in 30 volumes of ice-cold 50 mM Tris-HCl buffer; from tissue; host or cells: Sprague-Dawley rat brain cortex membranes
T1 sequence (P19327 1-422): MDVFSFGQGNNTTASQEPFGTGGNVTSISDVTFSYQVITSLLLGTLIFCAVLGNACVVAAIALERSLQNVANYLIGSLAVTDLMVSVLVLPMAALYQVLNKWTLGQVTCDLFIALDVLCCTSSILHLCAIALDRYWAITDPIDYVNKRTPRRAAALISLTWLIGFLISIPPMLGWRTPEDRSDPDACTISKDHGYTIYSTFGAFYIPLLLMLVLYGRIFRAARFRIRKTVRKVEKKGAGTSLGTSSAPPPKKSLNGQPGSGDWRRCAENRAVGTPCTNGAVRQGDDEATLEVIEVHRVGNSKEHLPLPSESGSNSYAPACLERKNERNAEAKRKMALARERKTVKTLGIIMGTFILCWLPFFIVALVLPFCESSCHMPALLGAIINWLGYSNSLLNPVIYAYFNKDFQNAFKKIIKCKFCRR
Method: The method to test the ability of compounds to inhibit serotonin 1A(5-HT1A) receptors was using Hall. et al., J Neuro Chem., 1985, 44, p 1685-1696 with modification.
The Sprague-Dawley (SD) rats were killed by decapitation and their brains rapidly removed at 4° C. The cortex tissue were homogenized in 30 volumes of ice-cold 50 mM Tris-HCl buffer (pH7.4) using an ultra-turrax T8 and centrifuged at 48,000 g for 20 min. The supernatant was discarded and the pellet washed twice by resuspension in 20 volumes Tris-HCl and centrifugation, homogenized in 20 volumes Tris-HCl, and incubated at 37° C. for 10 min. Membranes were than collected by centrifugation and washed twice before final resuspension in 10 volumes of 50 mM Tris-HCl, pH7.4.
For binding assays, the incubation medium consisted of 162.5 ug of tissue homogenate, 0.92 nM of [3H]8-OH-DPAT and vehicle or 10 uM of 5-HT or 10 nM of test compounds per well. 5-HT and test compounds were dissolved in distilled water and incubation medium was 50 mM Tris(pH7.4 at room temperature). The assay plates (96 well) were incubated for 60 min at 25° C. The reaction was terminated by rapid filtration using a Tomtec harvester, through GF/C glassfibre filter with 5 times washes of Tris buffer. The radioactivity retained on the filters was counted by scintillation spectroscopy (MicroBeta TriLux, Wallac). The tests were triplicates. Percent inhibition was calculated as below equation.
Total binding is the value of vehicle treated group and specific binding is the values that deduct non-specific binding (i.e. the value of non-specific ligand, 5-HT).

[3] = system: mice; assay: Tail Suspension Test in Mice (TST); assay type: in vivo; conditions: Mus musculus, reduction in immobility vs control group, 1 mg/kg, po
From the text: Tail Suspension Test in mice is the well-known animal model to determine antidepressant efficacy of compounds by checking escaping behavior and immobility time of mice. Mice treated with antidepressant drug show escaping behavior continuously comparing with control group.
The mice were mainly treated orally with the test compound dissolved in 30% PEG400 or with only 30% PEG400 as control. Tail of mouse is suspended to the rod of TST equipment and end of tail is fixed with sticky tape. Suspended mouse is incubated during 2 min for training and adaptation and after following 2 min, observe escaping behavior and check immobility time for 4 min. The potent ability of the compounds was determined as percent value of reduction in immobility comparing to control group as 100% baseline.

Compound	inhibition at 0.01 µM [2]	inhibition in vivo at 20 mg/kg ([1]; 20 mg/kg)	inhibition in vivo at 3 mg/kg [1]	inhibition in vivo at 1 mg/kg [3]	inhibition in vivo at 7.5 mg/kg [1]
O=C1CC2(CCCC2)CC(=O)N1CCCCN1CCN(c2ncccn2)CC1 [Buspirone, reference compound]	–	56%	–	–	–
COc1ccccc1N1CCN(CCCCOc2cccc(Cn3ccnc3)c2)CC1 [Example 5, 1-[4-(3-imidazol-1-ylmethyl-phenoxy)-butyl]-4-(2-methoxy-phenyl)-piperazine-hydrochloride]	50.7%	–	–	21.2%	60.3%
COc1ccccc1N1CCN(CCCCOc2ccc(CN(C)C)cc2)CC1 [Example 19, (4-{4-[4-(2-methoxy-phenyl)-piperazin-1-yl]-butoxy}-benzyl)-dimethyl-amine dihydrochloride]	59.6%	–	–	50.6%	50.8%
COc1ccccc1N1CCN(CCCCOc2ccc(CNc3ccccc3)cc2)CC1 [Example 21, (4-{4-[4-(2-methoxy-phenyl)-piperazin-1-yl]-butoxy}-benzyl)-phenyl-amine]	38.2%	–	29.9%	–	–
COc1ccccc1N1CCN(CCCCOc2cccc(Cn3nccn3)c2)CC1 [Example 24, 1-(2-methoxy-phenyl)-4-[4-(3-[1,2,3]triazol-2-ylmethyl-phenoxy)-butyl]-piperazine]	51.6%	–	62.6%	–	–
COc1ccccc1N1CCN(CCCCOc2cccc(CN(C)C)c2)CC1 [Example 28, (3-{4-[4-(2-methoxy-phenyl)-piperazin-1-yl]-butoxy}-benzyl)-dimethyl-amine]	13.5%	–	24.6%	–	–
COc1ccccc1N1CCN(CCCCOc2ccc(CN3CCOCC3)cc2)CC1 [Example 32, 4-(4-{4-[4-(2-methoxy-phenyl)-piperazin-1-yl]-butoxy}-benzyl)-morpholine]	–	–	–	–	27.8%
CN(C)Cc1ccc(OCCCCN2CCN(c3ccccc3Cl)CC2)cc1 [Example 33, (4-{4-[4-(2-Chloro-phenyl)-piperazin-1-yl]-butoxy}-benzyl)-dimethyl-amine]	53.7%	–	–	26.8%	–
Clc1cccc(N2CCN(CCCCOc3ccc(Cn4ncnn4)cc3)CC2)c1Cl [Example 36, 1-(2,3-dichloro-phenyl)-4-[4-(4-tetrazol-2-ylmethyl-phenoxy)-butyl]-piperazine]	28.1%	–	25.3%	–	–
CN(C)Cc1ccc(OCCCCN2CCN(c3cccc(Cl)c3Cl)CC2)cc1 [Example 39, (4-{4-[4-(2,3-dichloro-phenyl)-piperazin-1-yl]-butoxy}-benzyl)-dimethyl-amine]	52.9%	–	–	30.4%	–
Clc1cccc(N2CCN(CCCCOc3ccc(CN4CCOCC4)cc3)CC2)c1Cl [Example 40, 4-(4-{4-[4-(2,3-Dichloro-phenyl)-piperazin-1-yl]-butoxy}-benzyl)-morpholine]	45.6%	–	–	10.6%	–
CN1CCN(Cc2ccc(OCCCCN3CCN(c4cccc(Cl)c4Cl)CC3)cc2)CC1 [Example 41]	82.1%	–	–	14.1%	–

Continued, in another order:

inhibition at 0.01 µM [2]	Compound	inhibition in vivo at 20 mg/kg ([1]; 20 mg/kg)	inhibition in vivo at 3 mg/kg [1]	inhibition in vivo at 1 mg/kg [3]	inhibition in vivo at 7.5 mg/kg [1]
83.1%	COc1ccccc1N1CCN(CCCCOc2ccc(Cn3ccnc3)cc2)CC1 [Example 1, 1-[4-(4-imidazol-1-ylmethyl-phenoxy)-butyl]-4-(2-methoxy-phenyl)-piperazine]	–	28.7%	–	–
80.3%	COc1ccccc1N1CCN(CCCCOc2ccc(Cn3cncn3)cc2)CC1 [Example 2, 1-(2-methoxy-phenyl)-4-[4-(4-[1,2,4]triazol-1-ylmethyl-phenoxy)-butyl]-piperazine]	–	93.3%	–	–
78.4%	COc1ccccc1N1CCN(CCCCOc2cccc(Cn3cnnn3)c2)CC1 [Example 7, 1-(2-methoxy-phenyl)-4-[4-(3-tetrazol-1-ylmethyl-phenoxy)-butyl]-piperazine hydrochloride]	–	–	21.1%	61.1%
61.8%	COc1ccccc1N1CCN(CCCCOc2ccc(Cn3nccn3)cc2)CC1 [Example 11, 1-(2-methoxy-phenyl)-4-[4-(4-[1,2,3]triazol-2-ylmethyl-phenoxy)-butyl]-piperazine]	–	–	25%	69%
60.9%	COc1ccccc1N1CCN(CCCCOc2ccc(Cn3ccnn3)cc2)CC1 [Example 12, 1-(2-methoxy-phenyl)-4-[4-(4-[1,2,3]triazol-1-ylmethyl-phenoxy)-butyl]-piperazine]	–	97.3%	12.7%	–
68.5%	COc1ccccc1N1CCN(CCCCOc2ccc(CN3CCCCC3)cc2)CC1 [Example 20, 1-(2-methoxy-phenyl)-4-[4-(4-piperidin-1-ylmethyl-phenoxy)-butyl]-piperazine]	–	–	–	27%
70%	COc1ccccc1N1CCN(CCCCOc2ccc(CCn3ccnc3)cc2)CC1 [Example 47, 1-{4-[4-(2-imidazol-1-yl-ethyl)-phenoxy]-butyl}-4-(2-methoxy-phenyl)-piperazine]	–	39.3%	–	–
48%	COc1ccccc1N1CCN(CCCCOc2ccc(CCn3cncn3)cc2)CC1 [Example 48, 1-(2-methoxy-phenyl)-4-{4-[4-(2-[1,2,4]triazol-1-yl-ethyl)-phenoxy]-butyl}-piperazine]	–	31.3%	26.2%	–
45%	COc1ccccc1N1CCN(CCCCOc2ccc(CCn3nccn3)cc2)CC1 [Example 49, 1-(2-methoxy-phenyl)-4-{4-[4-(2-[1,2,3]triazol-2-yl-ethyl)-phenoxy]-butyl}-piperazine]	–	–	34.3%	–
51%	COc1ccccc1N1CCN(CCCCOc2ccc(CCn3ccnn3)cc2)CC1 [Example 50, 1-(2-methoxy-phenyl)-4-{4-[4-(2-[1,2,3]triazol-1-yl-ethyl)-phenoxy]-butyl}-piperazine]	–	–	46.9%	96.8%
47%	COc1ccccc1N1CCN(CCCCOc2ccc(CCn3ncnn3)cc2)CC1 [Example 51, 1-(2-methoxy-phenyl)-4-{4-[4-(2-tetrazol-2-yl-ethyl)-phenoxy]-butyl}-piperazine]	–	–	14.7%	44.4%
62%	COc1ccccc1N1CCN(CCCCOc2ccc(CCn3cnnn3)cc2)CC1 [Example 52, 1-(2-methoxy-phenyl)-4-{4-[4-(2-tetrazol-1-yl-ethyl)-phenoxy]-butyl}-piperazine]	–	–	26.4%	–
71%	COc1ccccc1N1CCN(CCCCOc2ccc(CCn3nnc(C)n3)cc2)CC1 [Example 54, 1-(2-Methoxy-phenyl)-4-(4-{4-[2-(5-methyl-tetrazol-2-yl)-ethyl]-phenoxy}-butyl)-piperazine]	–	–	31.8%	–
